According to patent US20220249596A1, “PIC1 PEPTIDE COMPOSITIONS AND METHODS OF USE THEREOF FOR TREATMENT OF HYPOXIC ISCHEMIC ENCEPHALOPATHY” (REALTA HOLDINGS, LLC, priority 2019, published 2022):
No end group written: not given here.

Key:
[1] = test system: systemic complement activity; test: Complement hemolytic assay (sensitized human erythrocytes) with plasma of injected neonatal rats; format: in vivo, rat
Procedure: Complement activity was assayed in plasma after i.p. injection of PIC1 in term-equivalent neonatal rats. At post-natal day 7 (P7; day of birth=P1), the rat brain is histologically similar to that of a 32- to 34-week gestation human fetus or newborn infant, i.e., cerebral cortical neuronal layering is complete, the germinal matrix is involuting, and white matter as yet has undergone little myelination. Hypoxic-ischemic brain damage in the 7-day-old rat pups is induced with unilateral common carotid artery ligation followed by systemic hypoxia produced by the inhalation of 8% oxygen/balance nitrogen, at constant temperature (37° C.) (Vanucci et al. 2005. Dev Neurosci, Vol. 27, pages 81-86).
Timed pregnant Wistar rats (Hilltop Lab Animals Inc., Scottdale, Pa.) were purchased at embryonic day 19, housed individually, and allowed to deliver spontaneously. Pups were randomized on the day of birth to control for the litter effect (10/litter). At P10-12 (term-equivalent), pups were randomly assigned to 4 different treatment groups: no intervention (control), normothermia (NT), hypothermia-treated vehicle controls (HT), and treatment (PIC1). NT and HT animals were injected with the vehicle used to suspend PIC1. Experimental animals underwent unilateral carotid ligation followed by exposure to hypoxia (8% O2/balanced nitrogen, Vannucci model) for 45 minutes. Pups in the HT group were placed in open jars in a temperature controlled chamber set to 28-30° C. to maintain a target rectal temperature of 31-32° C. for 6 hours, while pups in the control, NT, and PIC1 groups were kept in a separate chamber at 37° C. Pups in the PIC1 group were injected with 2 doses of PIC1 (160 mg/kg, i.p.), with the first dose at the time of carotid ligation, and the second dose four hours later. After intervention, pups were placed back with the dam, and harvested at different time points.
Cobra-venom factor (CVF) was injected i.p. into one group of animals to deplete complement activity in vivo 24 hours prior to carotid ligation. On the day of surgery, a group of animals was injected with 160 mg/kg of PIC1 i.p. at the time of carotid ligation. The animals were harvested at 0.5-48 hours after injection, and plasma was collected by cardiac puncture.
Human AB erythrocytes were derived from healthy human volunteers. The erythrocytes were sensitized as described in Bonaparte et al. using rat anti-human glycophorin A IgG (LifeSpan Biosciences, Inc., Seattle, Wash.). Sensitized cells (5×10^7), serum, and GVBS^++ (Veronal-buffered saline, 0.1% gelatin, 0.15 mM CaCl2, and 1.0 mM MgCl) were combined in a total volume of 375 μl , and incubated for 1 hour at 37° C. in borosilicate glass tubes. […] The tubes were centrifuged and the absorbance of the supernatants was measured in a spectrophotometer at 412 nm.

[2] = test system: TMEM119 (microglia); test: TMEM119 and Iba1/TMEM119 staining of cortex; format: in vivo, rat; settings: 48 hours after injury
Procedure: After blocking for one hour at room temperature, tissues were incubated with 1:300 goat anti-Iba1 (Abcam), 1:250 goat anti-GFAP (Abcam), 1:500 chicken anti-NeuN (Millipore, Billerica, Mass.), or 1:100 mouse anti-NeuN (Millipore) in host appropriate blocking serum overnight at 4° C. Primary antibodies were probed with 1:500 donkey anti-goat (Abcam), goat anti-chicken (Abcam), or goat anti-mouse (Abcam) AF 488 or 568 in appropriate blocking serum for one hour at room temperature. Tissues were blocked a second time with NGS for one hour at room temperature. Samples were then probed with 1:300 mouse anti-C1q (Abcam), 1:300 rabbit anti-C9, 1:50 rabbit anti-MPO (Abcam), 1:200 rabbit anti-TMEM (Novus Bio, Centennial, Colo.), 1:100 rabbit anti-C3aR (Bioss), 1:100 Mouse anti-C5aR (Hycult), or 1:200 chicken anti-C3/C3a (Abcam) in NGS overnight at 4° C. and then with 1:500 goat anti-mouse, rabbit, or chicken (Abcam) AF 488 or 568 in NGS for one hour at room temperature.
Accordingly, a more specific microglial marker was used to differentiate microglia from infiltrated peripheral macrophages. TMEM119 is a reliable microglial marker that discriminates resident microglia from blood-derived macrophages in the brain [21].

[3] = test system: C9; test: Immunofluorescence quantification of C9 in brain; format: in vivo, rat; settings: ipsilateral cortex and hippocampus, 48 hours, versus NT, P<0.05
Procedure: TUNEL/C1q staining was performed as follows. Five (5) μm paraffin-embedded coronal brain sections on slides were incubated (1 hour; 60° C.), deparaffinized with xylene, and rehydrated with ethanol (100%, 95%, 70%; RT). Endogenous peroxidase activity was blocked (0.3% H2O2/MeOH; 10 minutes; RT), and heat induced antigen retrieval was performed (when indicated) using 10 mM sodium citrate, pH 6.0. 10% normal serum (from the same species as the host of the secondary antibody) was used to block and to dilute antibodies. Samples were washed twice for 10 min each, in PBST between each step.
After blocking for one hour at room temperature, tissues were incubated with 1:300 goat anti-Iba1 (Abcam), 1:250 goat anti-GFAP (Abcam), 1:500 chicken anti-NeuN (Millipore, Billerica, Mass.), or 1:100 mouse anti-NeuN (Millipore) in host appropriate blocking serum overnight at 4° C. Primary antibodies were probed with 1:500 donkey anti-goat (Abcam), goat anti-chicken (Abcam), or goat anti-mouse (Abcam) AF 488 or 568 in appropriate blocking serum for one hour at room temperature. Tissues were blocked a second time with NGS for one hour at room temperature. […]

[4] = test system: brain infarct after HIE; settings: rat, in vivo, ip, 160 mg/kg
[5] = test system: C1q; test: CNS C1q level in whole cell brain lysate, fluorescent immunoassay; format: in vivo, rat; settings: 8, 12 and 24 hours after initial insult, P<0.05
Procedure: The local and systemic effects of NT, HT and PIC1 treatment on the complement cascade were measured. CNS C1q levels and systemic C1q and C5a levels were measured using a fluorescent immunoassay.
CNS C1q levels were measured as follows. 150 μg of whole cell brain lysate in 1× PBS was added to the wells of a Costar high binding, black flat bottom 96-well polystyrene microplate (Corning, Steuben County, NY) and incubated overnight at 4° C. The plates were washed 3 times with 1× PBS-0.1% Tween 20 (PBST) and blocked with 10% normal donkey serum (NDS) for one hour. A 1:50 dilution of goat anti-human C1q (Complement Technology, Inc., Tyler, Tex.) in NDS was added into the wells and incubated for one hour at room temperature (RT). After washing, a 1:500 dilution of donkey anti-goat Alexa Fluor (AF) 488 (Life Technologies, Grand Island, N.Y.) in NDS was added, and incubated for one hour at RT. Wells were then washed and blocked with 10% normal goat serum (NGS) for one hour at RT. A 1:250 dilution of mouse anti-GAPDG (Abcam, Cambridge, UK) in NGS was added into the wells and incubated for one hour at RT. Wells were washed and a 1:500 dilution of goat anti-mouse AF 568 (Life Technologies, Grand Island, N.Y.) in NGS was added to incubate for one hour at RT. The wells were washed and the plate read using a Synergy HT (BioTek, Winooski, Vt.).

IALILEPICCQERAA-dPEG24 (cysteine pairing not given here) [PIC1]
inhibition of systemic complement activation ([1]; 30 minutes after i.p. injection, 160 mg/kg, plasma): 70% | return of complement activity to baseline, time after injection ([1]; gradual return after i.p. injection, 160 mg/kg): ≤ 8 h | systemic complement inhibition at 0.5, 1, 2 and 4 hours after injection ([1]; versus untreated NT animals, P<0.05): significant systemic complement inhibition | complement activity at 8, 16 and 48 hours after injection ([1]; versus untreated controls): comparable to that of untreated controls | combined Iba1/TMEM119 staining in the cortex ([2]; versus NT and HT animals): almost two-fold decrease | TMEM119 expression in the cortex ([2]; versus NT brains): almost a three-fold decrease | C9 expression [3]: decreased expression | decrease in brain infarct size [4]: 68% | whole brain C1q levels, NT animals relative to PIC1-treated animals [5]: significantly higher
